Assay results: PMC11672637, “7-O-Carboxylic Acid-Substituted 3-O-Alkyl Difluoroquercetin; An Aztreonam-Potentiating Agent Against Carbapenemase-Producing Pseudomonas aeruginosa Through Simultaneous Inhibition of Metallo-β-Lactamase and Efflux Pump” (Antibiotics, 2024)
Like-named read-outs stand apart in the source and are kept apart here.

Key:
[1] = system: NDM-1-Producing P. aeruginosa (PA-017, blaNDM); assay: MIC / checkerboard with ATM; type: cell-based; conditions: for MIC: Pseudomonas aeruginosa
PA-036, blaNDM = assay: MIC / checkerboard with ATM; type: cell-based, P. aeruginosa; conditions: for MIC: Pseudomonas aeruginosa, read-out: MIC of ATM with 5, PA-036
PA-026, blaNDM = assay: MIC / checkerboard with ATM; type: cell-based, P. aeruginosa; conditions: for MIC: Pseudomonas aeruginosa, read-out: MIC of ATM with 5, PA-026
[2] = system: efflux pump activity in P. aeruginosa (PA-017, blaNDM); assay: EtBr accumulation, inhibition of efflux pump activity; type: cell-based; conditions: EtBr fluorescence compared with positive control CCCP
Method: The NDM-producing P. aeruginosa clinical isolate (PA-017, blaNDM) (5 mL, LB medium) was grown to reach the mid-log phase. After centrifugation at 3500 rpm for 15 min, the bacterial pellet was washed twice with PBS and resuspended to OD600 = 0.3 in PBS. To each well of a flat-bottomed black 96-well plate, 182 µL of the bacterial suspension, 4 µL of glucose [final concentration = 0.4% (w/v)], 4 µL of the synthesized compounds or positive control CCCP, and 10 µL of EtBr (final concentration = 1 µg/mL) were added. The plate was incubated at 37 °C, and fluorescence emission from EtBr (λex 480 nm/λem 630 nm) was recorded every 2 min (for 60 min) using a Cytation 5 imaging multi-mode reader (BioTek Instruments, Inc., Winooski, VT, USA).

PA-041, blaNDM = assay: MIC / checkerboard with ATM; type: cell-based, P. aeruginosa; conditions: for MIC: Pseudomonas aeruginosa, read-out: MIC of ATM with 5, PA-041
PA-003, blaVIM = assay: MIC / checkerboard with ATM; type: cell-based, P. aeruginosa; conditions: PA-003
PA-021, blaIMP = assay: MIC / checkerboard with ATM; type: cell-based, P. aeruginosa; conditions: PA-021

## CC(C)(C)CCOc1c(-c2ccc(F)c(F)c2)oc2cc(OCC(=O)O)cc(O)c2c1=O [Compound 5, 2-((2-(3,4-Difluorophenyl)-3-(3,3-dimethylbutoxy)-5-hydroxy-4-oxo-4H-chromen-7-yl)oxy)acetic Acid]
[1]; PA-017
  Activity (FICI class): S (S (Synergy, FICI ≤ 0.5))
  Concentrations of ATM and 5 at lowest FICI (ATM/5): 4/4
  Lowest FICI (ATM/5): 0.26
  Minimum concentration of 5 to make sensitive to ATM: 4 mg/L
[1]; PA-017, ATM/5
  Susceptibility to ATM: S (S (sensitive, MIC ≤ 8 mg/L))
[1]; PA-017, lowest-FICI combination
  FD (fold decrease in MIC of ATM with 5): 4
[1]; PA-017, compound alone, read-out: MIC, Cmpd
  MIC: > 256 µg/mL
[1]; read-out: MIC of ATM with 5, PA-017, 5 at 1 mg/L
  MIC: 8 µg/mL
[1]; read-out: MIC of ATM with 5, PA-017, 5 at 2 mg/L
  MIC: 8 µg/mL
[1]; read-out: MIC of ATM with 5, PA-017, 5 at 4 mg/L
  MIC: 4 µg/mL
[1]; read-out: MIC of ATM with 5, PA-017, 5 at 8 mg/L
  MIC: 4 µg/mL
[1]; read-out: MIC of ATM with 5, PA-017, 5 at 16 mg/L
  MIC: 2 µg/mL
[1]; read-out: MIC of ATM with 5, PA-017, 5 at 32 mg/L
  MIC: 2 µg/mL
[1]; read-out: MIC of ATM with 5, PA-017, 5 at 64 mg/L
  MIC: 1 µg/mL
PA-036, blaNDM; PA-036
  Activity (FICI class): S (S (Synergy, FICI ≤ 0.5))
  Concentrations of ATM and 5 at lowest FICI (ATM/5): 4/8
  Lowest FICI (ATM/5): 0.27
  Minimum concentration of 5 to make sensitive to ATM: 4 mg/L
PA-036, blaNDM; PA-036, ATM/5
  Susceptibility to ATM: S (S (sensitive, MIC ≤ 8 mg/L))
PA-036, blaNDM; PA-036, lowest-FICI combination
  FD (fold decrease in MIC of ATM with 5): 4
PA-036, blaNDM; 5 at 1 mg/L
  MIC: 16 µg/mL
PA-036, blaNDM; 5 at 2 mg/L
  MIC: 16 µg/mL
PA-036, blaNDM; 5 at 4 mg/L
  MIC: 8 µg/mL
PA-036, blaNDM; 5 at 8 mg/L
  MIC: 4 µg/mL
PA-036, blaNDM; 5 at 16 mg/L
  MIC: 4 µg/mL
PA-036, blaNDM; 5 at 32 mg/L
  MIC: 4 µg/mL
PA-036, blaNDM; 5 at 64 mg/L
  MIC: 4 µg/mL
PA-026, blaNDM; PA-026
  Activity (FICI class): S (S (Synergy, FICI ≤ 0.5))
  Concentrations of ATM and 5 at lowest FICI (ATM/5): 2/4
  Lowest FICI (ATM/5): 0.26
PA-026, blaNDM; PA-026, ATM/5
  Susceptibility to ATM: S (S (sensitive, MIC ≤ 8 mg/L))
PA-026, blaNDM; PA-026, lowest-FICI combination
  FD (fold decrease in MIC of ATM with 5): 4
PA-026, blaNDM; 5 at 1 mg/L
  MIC: 4 µg/mL
PA-026, blaNDM; 5 at 2 mg/L
  MIC: 4 µg/mL
PA-026, blaNDM; 5 at 4 mg/L
  MIC: 2 µg/mL
PA-026, blaNDM; 5 at 8 mg/L
  MIC: 2 µg/mL
PA-026, blaNDM; 5 at 16 mg/L
  MIC: 1 µg/mL
PA-026, blaNDM; 5 at 32 mg/L
  MIC: 1 µg/mL
PA-026, blaNDM; 5 at 64 mg/L
  MIC: 1 µg/mL
[2]
  EPi (inhibition of efflux pump activity): ↑ ^g
PA-041, blaNDM; PA-041
  Activity (FICI class): S (S (Synergy, FICI ≤ 0.5))
  Concentrations of ATM and 5 at lowest FICI (ATM/5): 1/32
  Lowest FICI (ATM/5): 0.31
PA-041, blaNDM; PA-041, ATM/5
  Susceptibility to ATM: S (S (sensitive, MIC ≤ 8 mg/L))
PA-041, blaNDM; PA-041, lowest-FICI combination
  FD (fold decrease in MIC of ATM with 5): 4
PA-041, blaNDM; 5 at 1 mg/L
  MIC: 4 µg/mL
PA-041, blaNDM; 5 at 2 mg/L
  MIC: 4 µg/mL
PA-041, blaNDM; 5 at 4 mg/L
  MIC: 2 µg/mL
PA-041, blaNDM; 5 at 8 mg/L
  MIC: 2 µg/mL
PA-041, blaNDM; 5 at 16 mg/L
  MIC: 2 µg/mL
PA-041, blaNDM; 5 at 32 mg/L
  MIC: 1 µg/mL
PA-041, blaNDM; 5 at 64 mg/L
  MIC: 1 µg/mL
PA-003, blaVIM
  Activity (FICI class): I (I (indifference, 0.5 < FICI ≤ 4))
  Concentrations of ATM and 5 at lowest FICI (ATM/5): 16/1
  Minimum concentration of 5 to make sensitive to ATM: 1 mg/L
PA-003, blaVIM; 5 at 2 mg/L
  MIC of ATM with 5: 16 µg/mL
PA-003, blaVIM; 5 at 4 mg/L
  MIC of ATM with 5: 16 µg/mL
PA-003, blaVIM; 5 at 8 mg/L
  MIC of ATM with 5: 16 µg/mL
PA-003, blaVIM; 5 at 16 mg/L
  MIC of ATM with 5: 16 µg/mL
PA-003, blaVIM; 5 at 32 mg/L
  MIC of ATM with 5: 16 µg/mL
PA-003, blaVIM; 5 at 64 mg/L
  MIC of ATM with 5: 16 µg/mL
PA-003, blaVIM; ATM/5
  Susceptibility to ATM: I (I (intermediate, MIC = 16 mg/L))
PA-003, blaVIM; lowest-FICI combination
  FD (fold decrease in MIC of ATM with 5): 2
PA-003, blaVIM; Pseudomonas aeruginosa, read-out: MIC of ATM with 5, 5 at 1 mg/L
  MIC: 16 µg/mL
PA-021, blaIMP
  Activity (FICI class): I (I (indifference, 0.5 < FICI ≤ 4))
  Lowest FICI (ATM/5): 0.50
PA-021, blaIMP; ATM/5
  Susceptibility to ATM: S (S (sensitive, MIC ≤ 8 mg/L))
PA-021, blaIMP; lowest-FICI combination
  FD (fold decrease in MIC of ATM with 5): 2
